This series has as its system ciliated epithelium of the trachea of chicken embryos. Nature of the series: standard test for examining ciliary function (ciliary frequency of tracheal ciliated epithelium tissue pieces). Type of series: cell-based. The following applies: orienting tests; compared with results of table 2. The text has this:
In a standard test for examining ciliary function, a conventional preparation for nasal administration having a phosphate/citrate buffer and benzalkonium chloride as preservative was compared in each case with a preparation of the invention having malic acid as buffer and benzalkonium chloride as preservative.
Pieces of tissue from ciliated epithelium of the trachea of chicken embryos are employed in the tests on which the comparison is based, reference being made for details of the tests to S. G. Romejn et al., Int. J. of Pharmac. 135 (1996) 137-145 and van De Donk et al., Rhinology, 20 (1982) 81-87.
The self-cleaning of the nasal mucosa is then simulated by washing out the respective solutions and adding Ringer's solution for 45 min.
After exposure for 15 min, the ciliary frequency is reduced distinctly less by the exemplary solutions with malic acid buffer than by the reference solutions. The self-cleaning of the nasal mucosa is then simulated by washing out the test solutions and adding Ringer's solution for 45 min. A distinctly better recovery of the ciliary beating force, which extends to more than ¾ of the initial beating force (of 100%), is achieved thereby with the exemplary solutions with malic acid buffer. […]

As to calcitonin [calcitonin (from salmon)], the “reduction in ciliary activity and regeneration of the cilia (result in words)” value is listed as “similar”. As for `O=C(O)c1cc(=O)c2c(OCC(O)COc3cccc4oc(C(=O)O)cc(=O)c34)cccc2o1` [cromoglicic acid], the “reduction in ciliary activity and regeneration of the cilia (result in words)” value was “similar”.

Values taken from patent publication US20060127317A1, “Nasallly applicable pharmaceutical preparation and the production thereof” (priority 2002, published 2006).
